Experimental data from US20080207527A1, “Bicyclic Compounds Which Inhibit Beta-Secretase Activity and Methods of Use Thereof” (CoMentis, Inc., priority 2004, published 2008).

How the values were obtained:
memapsin 2 = memapsin 2 (Homo sapiens, UniProt P56817); experiment: Inhibition of memapsin 2 beta-secretase activity toward fluorogenic substrate FS-2; format: biochemical; settings: pH 4, 37° C., 20 minutes pre-incubation, read-out: M2 Ki
Procedure: Potency of compounds were determined by measurement of their inhibition of memapsin 2 activity toward a fluorescent substrate. […] Briefly, assays were performed at pH 4, 37° C., by pre-incubation of memapsin 2 enzyme with compound for 20 minutes. Activity measure was initiated by addition of a fluorogenic substrate FS-2 (Bachem Americas, Torrance, Calif.). Fluorescent signal increase over time was measured as a rate of hydrolysis of the peptide substrate.

Aβ production = experiment: Cellular Aβ IC50 determination (Aβ40 sandwich ELISA); format: cell-based; settings: Cricetulus griseus, Chinese hamster ovary cells over-expressing human APP695 with London and Swedish mutations, 24 h
Procedure: The potency of compounds against memapsin 2 activity was determined in a cellular assay of Aβ production. […] Chinese hamster ovary cells that over-express human APP695 with the London and Swedish mutations were seeded in multi-well plates at 10% confluency. Compounds were dissolved in DMSO to concentrations near 1 mM, and diluted into culture media to a final concentration near 4 μM (final 0.4% DMSO). Compounds were diluted serially and applied to cells in multi-well plates 48 h after seeding. Incubation was continued in 5% CO2 at 37 degrees C. for 24 h. Aliquots were removed and assayed for Aβ40 content using a sandwich ELISA (BioSource International). Amount of Aβ40 over the range of concentration of compounds, relative to control incubations, were fit to a 4-parameter IC50 model.

Chain of memapsin 2 (P56817 46-501): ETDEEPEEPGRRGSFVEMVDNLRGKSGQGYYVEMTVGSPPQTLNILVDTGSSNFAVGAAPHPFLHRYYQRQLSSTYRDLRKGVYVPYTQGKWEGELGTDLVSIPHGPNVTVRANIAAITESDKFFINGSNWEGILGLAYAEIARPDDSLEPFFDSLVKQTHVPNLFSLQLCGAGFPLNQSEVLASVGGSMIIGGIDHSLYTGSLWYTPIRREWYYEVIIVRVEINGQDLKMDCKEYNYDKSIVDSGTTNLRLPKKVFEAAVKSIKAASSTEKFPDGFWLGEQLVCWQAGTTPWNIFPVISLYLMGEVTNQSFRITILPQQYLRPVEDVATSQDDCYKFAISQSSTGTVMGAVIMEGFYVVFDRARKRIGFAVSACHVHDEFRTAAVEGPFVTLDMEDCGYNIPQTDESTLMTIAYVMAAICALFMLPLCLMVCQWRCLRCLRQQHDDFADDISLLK

| Ki (memapsin 2) | IC50 (Aβ production) | Compound |
| --- | --- | --- |
| < 405 nM | > 20000 nM | Cc1cc(C(=O)NC(CC(C)C)C(O)CC(C)C(=O)NC(C(=O)NCC(C)C)C(C)C)cc(C(=O)N(C)Cc2ccccn2)c1 (stereo not drawn) [N1-(5-hydroxy-8-(1-(isobutylamino)-3-methyl-1-oxobutan-2-ylamino)-2,7-dimethyl-8-oxooctan-4-yl)-N3,5-dimethyl-N3-(pyridin-2-ylmethyl)isophthalamide] |
| < 405 nM | 10000 to 20000 nM | Cc1cc(C(=O)NC(CC(C)C)C(O)CC(C)C(=O)NC(C(=O)NCC(C)C)C(C)C)cc(C(=O)N(C)Cc2cccnc2)c1 (stereo not drawn) [N1-(5-hydroxy-8-(1-(isobutylamino)-3-methyl-1-oxobutan-2-ylamino)-2,7-dimethyl-8-oxooctan-4-yl)-N3,5-dimethyl-N3-(pyridin-3-ylmethyl)isophthalamide] |
| 405 to 2000 nM | > 20000 nM | CC(C)CNC(=O)C(NC(=O)C(C)CC(O)C(CC(C)C)NC(=O)c1cccc(C(=O)N(C)Cc2cccc(O)c2)c1)C(C)C (stereo not drawn) [N1-(5-hydroxy-8-(1-(isobutylamino)-3-methyl-1-oxobutan-2-ylamino)-2,7-dimethyl-8-oxooctan-4-yl)-N3-(3-hydroxybenzyl)-N3-methylisophthalamide] |
| 405 to 2000 nM | > 20000 nM | COc1cccc(CN(C)C(=O)c2cccc(C(=O)NC(CC(C)C)C(O)CC(C)C(=O)NC(C(=O)NCC(C)C)C(C)C)c2)c1 (stereo not drawn) [N1-(5-hydroxy-8-(1-(isobutylamino)-3-methyl-1-oxobutan-2-ylamino)-2,7-dimethyl-8-oxooctan-4-yl)-N3-(3-methoxybenzyl)-N3-methylisophthalamide] |
| < 405 nM | – | Cc1csc(CN(C(=O)c2cccc(C(=O)NC(CC(C)C)C(O)CC(C)C(=O)NC(C(=O)NCC(C)C)C(C)C)c2)C(C)C)n1 (stereo not drawn) [N1-(5-hydroxy-8-(1-(isobutylamino)-3-methyl-1-oxobutan-2-ylamino)-2,7-dimethyl-8-oxooctan-4-yl)-N3-isopropyl-N3-((4-methylthiazol-2-yl)methyl)isophthalamide] |
| < 405 nM | > 20000 nM | CC(C)CNC(=O)C(NC(=O)C(C)CC(O)C(CC(C)C)NC(=O)c1cc(C(=O)N(C)Cc2ccncc2)cc(N(C)S(C)(=O)=O)c1)C(C)C (stereo not drawn) [N1-(5-hydroxy-8-(1-(isobutylamino)-3-methyl-1-oxobutan-2-ylamino)-2,7-dimethyl-8-oxooctan-4-yl)-N3-methyl-5-(N-methylmethylsulfonamido)-N3-(pyridin-4-ylmethyl)isophthalamide] |
| < 405 nM | – | Cc1nc(CN(C)C(=O)c2cccc(C(=O)NC(CC(C)C)C(O)CC(C)C(=O)NC(C(=O)NCC(C)C)C(C)C)c2)cs1 (stereo not drawn) [N1-(5-hydroxy-8-(1-(isobutylamino)-3-methyl-1-oxobutan-2-ylamino)-2,7-dimethyl-8-oxooctan-4-yl)-N3-methyl-N3-((2-methylthiazol-4-yl)methyl)isophthalamide] |
| 2000 to 5000 nM | – | CCCN(CCC)C(=O)c1cccc(C(=O)NC(CC(C)C)C(O)CC(C)C(=O)NCC(C)C)c1 (stereo not drawn) [N1-(5-hydroxy-8-(isobutylamino)-2,7-dimethyl-8-oxooctan-4-yl)-N3,N3-dipropylisophthalamide] |
| < 405 nM | – | CCc1csc(CNC(=O)c2cc(C(=O)NC(CC(C)C)C(O)CC(C)C(=O)NC(C(=O)NCC(C)C)C(C)C)cc(N(C)S(C)(=O)=O)c2)n1 (stereo not drawn) [N1-((4-ethylthiazol-2-yl)methyl)-N3-(5-hydroxy-8-(1-(isobutylamino)-3-methyl-1-oxobutan-2-ylamino)-2,7-dimethyl-8-oxooctan-4-yl)-5-(N-methylmethylsulfonamido)isophthalamide] |
| < 405 nM | – | CCCN(CCC)C(=O)c1cncc(C(=O)NC(CC(C)C)C(O)CC(C)C(=O)NC(C(=O)NC(C)C)C(C)C)c1 (stereo not drawn) [N3-(5-hydroxy-8-(1-(isopropylamino)-3-methyl-1-oxobutan-2-ylamino)-2,7-dimethyl-8-oxooctan-4-yl)-N5,N5-dipropylpyridine-3,5-dicarboxamide] |
| > 5000 nM | – | CCN(Cc1ccncc1)C(=O)c1cncc(C(=O)NC(CC(C)C)C(O)CC(C)C(=O)NC(C(=O)NCC(C)C)C(C)C)c1 (stereo not drawn) [N3-ethyl-N5-(5-hydroxy-8-(1-(isobutylamino)-3-methyl-1-oxobutan-2-ylamino)-2,7-dimethyl-8-oxooctan-4-yl)-N3-(pyridin-4-ylmethyl)pyridine-3,5-dicarboxamide] |
| > 5000 nM | – | CCCN(CCC)C(=O)c1cc(NC(=O)OC(C)(C)C)cc(C(=O)NC(CC(C)C)C(O)CC(OC)C(=O)NC(C(=O)NC(C)C)C(C)C)c1 (stereo not drawn) [tert-butyl 3-(dipropylcarbamoyl)-5-(5-hydroxy-8-(1-(isopropylamino)-3-methyl-1-oxobutan-2-ylamino)-7-methoxy-2-methyl-8-oxooctan-4-ylcarbamoyl)phenylcarbamate] |

More lines, now with the values behind:

| Compound | Ki (memapsin 2) | IC50 (Aβ production) |
| --- | --- | --- |
| CC(C)CNC(=O)C(NC(=O)C(C)CC(O)C(CC(C)C)NC(=O)c1cc(OCC(O)CN=[N+]=[N-])cc(C(=O)NC(C)c2ccccc2)c1)C(C)C (stereo not drawn) [5-(3-azido-2-hydroxypropoxy)-N1-(5-hydroxy-8-(1-(isobutylamino)-3-methyl-1-oxobutan-2-ylamino)-2,7-dimethyl-8-oxooctan-4-yl)-N3-(1-phenylethyl)isophthalamide] | 405 to 2000 nM | – |
| CC(C)CC(NC(=O)c1cc(C(=O)NC(CO)c2ccccc2)cc(N(C)S(C)(=O)=O)c1)C(O)CC(C)C(=O)NC(C(=O)NC(C)C)C(C)C (stereo not drawn) [N1-(2-hydroxy-1-phenylethyl)-N3-(5-hydroxy-8-(1-(isopropylamino)-3-methyl-1-oxobutan-2-ylamino)-2,7-dimethyl-8-oxooctan-4-yl)-5-(N-methylmethylsulfonamido)isophthalamide] | 405 to 2000 nM | > 20000 nM |
| CC(C)CC(NC(=O)c1cc(C(=O)NC(C)c2ccccc2)cc(N(C)S(C)(=O)=O)c1)C(O)CC(C)C(=O)NC(C(=O)NCC1CN(C)C1)C(C)C (stereo not drawn) [N1-(5-hydroxy-2,7-dimethyl-8-(3-methyl-1-((1-methylazetidin-3-yl)methylamino)-1-oxobutan-2-ylamino)-8-oxooctan-4-yl)-5-(N-methylmethylsulfonamido)-N3-(1-phenylethyl)isophthalamide] | < 405 nM | < 5000 nM |
| CC(C)CC(NC(=O)c1cc(C(=O)NC(C)c2ccccc2)cc(N(C)S(C)(=O)=O)c1)C(O)CC(C)C(=O)NC(C(=O)NCC1CCN(C)CC1)C(C)C (stereo not drawn) [N1-(5-hydroxy-2,7-dimethyl-8-(3-methyl-1-((1-methylpiperidin-4-yl)methylamino)-1-oxobutan-2-ylamino)-8-oxooctan-4-yl)-5-(N-methylmethylsulfonamido)-N3-(1-phenylethyl)isophthalamide] | < 405 nM | < 5000 nM |
| CC(C)CNC(=O)C(NC(=O)C(C)CC(O)C(CC(C)C)NC(=O)c1cc(OCC2CNC(=O)O2)cc(C(=O)NC(C)c2ccccc2)c1)C(C)C (stereo not drawn) [N1-(5-hydroxy-8-(1-(isobutylamino)-3-methyl-1-oxobutan-2-ylamino)-2,7-dimethyl-8-oxooctan-4-yl)-5-((2-oxooxazolidin-5-yl)methoxy)-N3-(1-phenylethyl)isophthalamide] | < 405 nM | – |
| CC(=O)N(C)c1cc(C(=O)NC(C)c2ccccc2)cc(C(=O)NC(CC(C)C)C(O)CC(C)C(=O)NC(C(=O)NCC(C)C)C(C)C)c1 (stereo not drawn) [N1-(5-hydroxy-8-(1-(isobutylamino)-3-methyl-1-oxobutan-2-ylamino)-2,7-dimethyl-8-oxooctan-4-yl)-5-(N-methylacetamido)-N3-(1-phenylethyl)isophthalamide] | < 405 nM | 5000 to 10000 nM |
| CNS(=O)(=O)c1cc(C(=O)NC(C)c2ccccc2)cc(C(=O)NC(CC(C)C)C(O)CC(C)C(=O)NC(C(=O)NCC(C)C)C(C)C)c1 (stereo not drawn) [N1-(5-hydroxy-8-(1-(isobutylamino)-3-methyl-1-oxobutan-2-ylamino)-2,7-dimethyl-8-oxooctan-4-yl)-5-(N-methylsulfamoyl)-N3-(1-phenylethyl)isophthalamide] | < 405 nM | 5000 to 10000 nM |
| CC(C)CC(NC(=O)c1cc(C(=O)NC(C)c2ccccc2)cc(N(C)S(C)(=O)=O)c1)C(O)CC(C)C(=O)NC(C(=O)NC(C)C)C(C)C (stereo not drawn) [N1-(5-hydroxy-8-(1-(isopropylamino)-3-methyl-1-oxobutan-2-ylamino)-2,7-dimethyl-8-oxooctan-4-yl)-5-(N-methylmethylsulfonamido)-N3-(1-phenylethyl)isophthalamide] | – | < 5000 nM |
| COc1cccc(CNC(=O)CNC(=O)C(C)CC(O)C(CC(C)C)NC(=O)c2cc(C(=O)NC(C)c3ccccc3)cc(N(C)S(C)(=O)=O)c2)c1 (stereo not drawn) [N1-(5-hydroxy-8-(2-(3-methoxybenzylamino)-2-oxoethylamino)-2,7-dimethyl-8-oxooctan-4-yl)-5-(N-methylmethylsulfonamido)-N3-(1-phenylethyl)isophthalamide] | 405 to 2000 nM | – |
| CC(C)CC(NC(=O)c1cc(C(=O)NCc2ccccc2)cc(N(C)S(C)(=O)=O)c1)C(O)CC(C)C(=O)NC(C(=O)NC(C)C)C(C)C (stereo not drawn) [N1-benzyl-N3-(5-hydroxy-8-(1-(isopropylamino)-3-methyl-1-oxobutan-2-ylamino)-2,7-dimethyl-8-oxooctan-4-yl)-5-(N-methylmethylsulfonamido)isophthalamide] | – | 5000 to 10000 nM |
| CC(C)CC(NC(=O)c1cc(C(=O)NC(C)c2ccccc2)cc(N(C)S(C)(=O)=O)c1)C(O)CC(NC(=O)OCc1ccccc1)C(=O)NC(C(=O)NC(C)C)C(C)C (stereo not drawn) [benzyl 4-hydroxy-1-(1-(isopropylamino)-3-methyl-1-oxobutan-2-ylamino)-7-methyl-5-(3-(N-methylmethylsulfonamido)-5-(1-phenylethylcarbamoyl)benzamido)-1-oxooctan-2-ylcarbamate] | 405 to 2000 nM | – |
